Here are results for three molecules from patent US20130004579A1, “Use of Plant Lectins to Target Leukocytes” (priority 2011, published 2013).

Assay [1] concerns IL-1α production by bone marrow-derived dendritic cells (BMDCs). Briefly: IL-1α ELISA on supernatants of BMDCs incubated with particles. Conditions: C57BL/6 BMDCs; LPS 1 ng/ml; serial dilutions SC-PS 31.25 μg/ml to 1 mg/ml with lectin 1.56 to 50 μg/ml; vs unconjugated SC-PS. The assay is classed as cell-based, mouse. The method, then: (§1) BMDCs were isolated and cultured as described in Example 2 at a density of 6.25×10^5 cells/ml in 96 well U-bottomed microplates. Cells were stimulated with a Toll-like receptor (TLR) ligand (LPS or Pam2CSK4) for 6 hours. Cells were then incubated with either medium, alum/SC-PS particles, alum/SC-PS particles conjugated with UEA-1, alum/SC-PS particles conjugated with UEA-1 mimetic or with UEA-1 alone for 24 hours. After incubation, supernatants from BMDCs were collected and cytokine concentrations measured by ELISA. Antibody pairs specific for each cytokine were used for immunoassaying. The following cytokines were measured by immunoassay: IL-1α, IL-1β.
(§2) Capture antibodies were obtained from BD Pharmingen (San Diego, Calif.), BioLegend (San Diego, Calif.) and R&D Systems, Inc. (Minneapolis, Minn.) and prepared according to the manufacturer's specifications (see Table 2) and a volume of 40 μl/well added to high-binding 96 well ELISA plates. Plates were then incubated for 2 hours at 37° C. or overnight at 4° C. After incubation, plates were washed in PBS-T (×3) and tapped dry. Plates were then blocked with the appropriate blocking solution (see Table 2) and incubated for 2 hours at 37° C. After incubation plates were washed in PBS-T (×3) and tapped dry. Supernatants were transferred from cell culture plates to fresh 96 well plates. All supernatants were stored at −20° C. when not in use. Cell supernatants were applied to plates at the indicated dilutions (see Table 2). A blank triplicate was left on each plate containing the diluent as a blank. Standards were prepared at the starting concentration in the recommended diluent as specified by the manufacturer and transferred to a 96 well plate and serial dilutions (1:2) performed (see Table 2). All standards and samples were applied to plates at 40 μl/well total volume for incubation overnight at 4° C. After incubation plates were washed with PBS-T (×5) and tapped dry. […] Plates were then stopped by the addition of 20 μl/well of 1M H2SO4 and read. […]
(In general: An ELISA detects its analyte on a solid surface through an enzyme-linked reagent.)

Assay [2] deals with IL-1β production by bone marrow-derived dendritic cells (BMDCs). As to the kind of experiment: IL-1β ELISA on supernatants of BMDCs incubated with particles. It counts as cell-based, mouse. To be noted: C57BL/6 BMDCs; LPS 1 ng/ml; serial dilutions SC-PS 31.25 μg/ml to 1 mg/ml with lectin 1.56 to 50 μg/ml; vs unconjugated SC-PS. The method, then: as §1, §2
Assay [3] has as its system IL-1α production by BMDCs from NLRP3−/− mice. As to the kind of experiment: IL-1α ELISA on supernatants of NLRP3−/− BMDCs. It counts as cell-based, mouse. Conditions: SC-PS 31.25 μg/ml to 1 mg/ml, lectin 1.56 to 50 μg/ml, vs untargeted particles. How it is done:
as §1
(§3) Capture antibodies were obtained from BD Pharmingen (San Diego, Calif.), BioLegend (San Diego, Calif.) and R&D Systems, Inc. (Minneapolis, Minn.) and prepared according to the manufacturer's specifications (see Table 2) and a volume of 40 μl/well added to high-binding 96 well ELISA plates. Plates were then incubated for 2 hours at 37° C. or overnight at 4° C. After incubation, plates were washed in PBS-T (×3) and tapped dry. Plates were then blocked with the appropriate blocking solution (see Table 2) and incubated for 2 hours at 37° C. After incubation plates were washed in PBS-T (×3) and tapped dry. […] Plates were then stopped by the addition of 20 μl/well of 1M H2SO4 and read. […]

For assay [4], the system named is IL-1β production by BMDCs from NLRP3−/− mice. As to the kind of experiment: IL-1β ELISA on supernatants of NLRP3−/− BMDCs. To be noted: SC-PS 31.25 μg/ml to 1 mg/ml, lectin 1.56 to 50 μg/ml. The assay is classed as cell-based, mouse. How it is done:
as §1, §3

For a further assay, the system named is BALB/c mice. As to the kind of experiment: OVA-specific cytokine responses of peritoneal cells after i.p. immunization. It counts as in vivo, mouse. Conditions: i.p. days 0 and 35, day 42; OVA 100 μg/ml restimulation; comparison with OVA-loaded PS particles. The method, then: Five groups of 6-8 week old female BALB/c mice (five mice per group) were i.p, immunized on day 0 with a total volume of 200 μl of vaccine. All ovalbumin (OVA) used was endotoxin-free. The groups were:
On day 34, blood was collected from the tail vein of each mouse and used to measure serum antibody titres. The following day, mice were i.p. immunized with an identical series of booster vaccinations as on day 0. Mice were sacrificed on day 42 by cervical dislocation, and cells were harvested.
Spleens were removed from the mice, and single cell suspensions prepared as described above. Peritoneal lavages were also performed. Cells were plated onto 96 well U-bottomed plates at cell densities of 2×10^6 cells/ml for splenocytes and 1×10^6 cells/ml for peritoneal lavage cells in 200 μl of complete RPMI 1640 medium per well.
Cells were stimulated in vitro with PBS, endotoxin-free OVA (50 μg/ml, 100 μg/ml, 500 μg/ml), phorbol myristate acetate (PMA, 25 ng/ml) combined with anti-CD3 (1 μg/ml) or anti-CD3 alone (0.5 μg/ml). Cells were incubated with antigen for 3 days. Supernatants were then removed and IL-5, IL-10, IL-17 and IFN-γ cytokine concentrations were determined by ELISA. […]

As for “PHA-L: SC-PS particles conjugated with biotinylated Phaseolus vulgaris leukoagglutinin”, the “TLR-4 agonist-primed IL-1α production” value in assay [1] was “greatly increased IL-1α production and remained effective across four of the five serial dilutions”. Also, the “TLR-4 agonist-primed IL-1β production” value in assay [2] was “greatly increased IL-1β production and remained effective across four serial dilutions”. Moreover, in assay [3], the “IL-1α production in the absence of NLRP3” value is listed as “enhances IL-1α production”. For the same molecule, the “IL-1β production in the absence of NLRP3” value in assay [4] was “not IL-1β production”.

Take “PHA-E: SC-PS particles conjugated with biotinylated Phaseolus vulgaris erthyroagglutinin”: in assay [1], the “TLR-4 agonist-primed IL-1α production” value is “greatly increased IL-1α production and remained effective across four of the five serial dilutions”. Also, the “TLR-4 agonist-primed IL-1β production” value in assay [2] was “greatly increased IL-1β production and remained effective across four serial dilutions”. Also, the “IL-1α production in the absence of NLRP3” value in assay [3] is “enhances IL-1α production”. In addition, the “IL-1β production in the absence of NLRP3” value in assay [4] is reported as “not IL-β production”.

B1: OVA alone: endotoxin-free ovalbumin antigen, 50 μg/mouse, without particles (protein, UniProt P01012 2-386, looked up)
Ovalbumin: GSIGAASMEFCFDVFKELKVHHANENIFYCPIAIMSALAMVYLGAKDSTRTQINKVVRFDKLPGFGDSIEAQCGTSVNVHSSLRDILNQITKPNDVYSFSLASRLYAEERYPILPEYLQCVKELYRGGLEPINFQTAADQARELINSWVESQTNGIIRNVLQPSSVDSQTAMVLVNAIVFKGLWEKAFKDEDTQAMPFRVTEQESKPVQMMYQIGLFRVASMASEKMKILELPFASGTMSMLVLLPDEVSGLEQLESIINFEKLTEWTSSNVMEERKIKVYLPRMKMEEKYNLTSVLMAMGITDVFSSSANLSGISSAESLKISQAVHAAHAEINEAGREVVGSAEAGVDAASVSEEFRADHPFLFCIKHIATNAVLFFGRCVSP
modifications: endotoxin-free
notes: endotoxin-free ovalbumin antigen, 50 μg/mouse, without particles
B1: in the assay on BALB/c mice, the “antigen-specific IL-5 by peritoneal cells” value was “stronger” and the “antigen-specific IL-17 by peritoneal cells” value is “stronger”.
